Consider 19 compounds from patent publication US12581252B2, “Substituted pyrrolo[3,4-b]pyridines as PI3K-α inhibitors” (Relay Therapeutics, Inc., priority 2020, dated 2026).

Structures are written as SMILES.

For the first assay, the target named is H1047R PIK3CA enzyme (Homo sapiens, UniProt P42336, H1047R). Briefly: ADP-Glo Biochemical PIK3CA Kinase Assay.
Sequence of H1047R PIK3CA enzyme (P42336 whole entry H1047R): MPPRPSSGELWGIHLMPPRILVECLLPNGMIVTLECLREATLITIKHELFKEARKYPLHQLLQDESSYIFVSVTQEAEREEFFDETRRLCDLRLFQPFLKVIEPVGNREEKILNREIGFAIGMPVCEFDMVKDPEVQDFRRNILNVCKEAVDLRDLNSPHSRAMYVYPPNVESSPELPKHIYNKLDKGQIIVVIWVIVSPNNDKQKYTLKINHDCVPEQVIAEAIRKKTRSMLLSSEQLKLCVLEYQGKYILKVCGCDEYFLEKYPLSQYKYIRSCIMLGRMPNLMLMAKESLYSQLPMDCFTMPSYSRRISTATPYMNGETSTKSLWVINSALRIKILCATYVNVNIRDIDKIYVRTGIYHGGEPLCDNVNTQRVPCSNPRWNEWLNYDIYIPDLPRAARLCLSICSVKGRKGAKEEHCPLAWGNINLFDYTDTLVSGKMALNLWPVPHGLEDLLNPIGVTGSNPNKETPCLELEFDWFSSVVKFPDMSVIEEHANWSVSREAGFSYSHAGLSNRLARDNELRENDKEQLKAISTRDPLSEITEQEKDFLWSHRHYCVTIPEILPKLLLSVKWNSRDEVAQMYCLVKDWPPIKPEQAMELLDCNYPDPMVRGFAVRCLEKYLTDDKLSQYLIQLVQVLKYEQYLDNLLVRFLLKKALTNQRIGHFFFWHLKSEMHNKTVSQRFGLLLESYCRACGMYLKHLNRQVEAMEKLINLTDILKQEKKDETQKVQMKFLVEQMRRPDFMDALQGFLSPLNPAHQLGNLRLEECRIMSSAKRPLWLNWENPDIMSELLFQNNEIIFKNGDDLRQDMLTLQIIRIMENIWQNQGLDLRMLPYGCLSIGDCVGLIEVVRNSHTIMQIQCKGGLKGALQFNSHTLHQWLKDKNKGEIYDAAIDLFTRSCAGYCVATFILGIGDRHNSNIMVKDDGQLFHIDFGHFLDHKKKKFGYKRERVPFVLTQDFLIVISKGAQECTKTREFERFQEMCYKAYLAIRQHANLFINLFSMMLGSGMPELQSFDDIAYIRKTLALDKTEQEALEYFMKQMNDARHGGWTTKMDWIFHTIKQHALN
Sequence of H1047R PIK3CA enzyme (P27986 whole entry partner): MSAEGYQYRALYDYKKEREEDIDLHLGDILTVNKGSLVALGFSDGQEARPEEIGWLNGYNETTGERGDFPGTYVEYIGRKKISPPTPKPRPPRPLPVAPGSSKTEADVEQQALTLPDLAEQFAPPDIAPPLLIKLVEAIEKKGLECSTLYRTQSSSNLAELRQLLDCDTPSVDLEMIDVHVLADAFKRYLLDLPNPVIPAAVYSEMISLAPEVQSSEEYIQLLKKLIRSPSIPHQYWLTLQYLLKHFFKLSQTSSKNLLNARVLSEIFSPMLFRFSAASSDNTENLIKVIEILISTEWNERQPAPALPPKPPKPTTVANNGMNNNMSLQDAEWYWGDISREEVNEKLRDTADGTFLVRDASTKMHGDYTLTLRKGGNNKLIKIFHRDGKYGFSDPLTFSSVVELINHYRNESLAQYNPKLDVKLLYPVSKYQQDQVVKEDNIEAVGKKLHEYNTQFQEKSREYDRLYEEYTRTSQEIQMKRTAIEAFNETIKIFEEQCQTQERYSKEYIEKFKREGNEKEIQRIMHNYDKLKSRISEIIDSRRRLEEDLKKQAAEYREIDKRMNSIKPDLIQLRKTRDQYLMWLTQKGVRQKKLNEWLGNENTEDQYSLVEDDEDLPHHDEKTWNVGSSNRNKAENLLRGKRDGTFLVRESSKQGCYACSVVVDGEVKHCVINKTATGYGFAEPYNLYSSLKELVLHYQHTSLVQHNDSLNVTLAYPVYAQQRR
Settings: not given
Background: ADP-Glo turns the ADP formed in a reaction into a luminescent signal.
As to `NCCc1cc(NC(=O)N2C[C@@](O)(C(F)(F)F)c3cc(F)ccc32)c2c(c1)C(=O)N[C@H]2c1cc(F)ccc1Cl` (single isomer, unassigned) [Compound I-2581], the IC50 is ≤ 100 nM.

Turning to `[2H]C1([2H])N(C(=O)Nc2cccc3c2[C@H](c2cc(F)ccc2Cl)NC3=O)c2ccc(F)cc2[C@]1(O)C(F)(F)F` (single isomer, unassigned) [Compound I-2595], the IC50 is ≤ 100 nM.

On to `N#CCc1cc(NC(=O)N2C[C@](O)(C(F)F)c3cc(F)ccc32)c2c(c1)C(=O)N[C@H]2c1cc(F)ccc1Cl` (single isomer, unassigned) [Compound I-2601], for which the IC50 was ≤ 100 nM.

With `N#CCc1cc(NC(=O)N2C[C@](O)(C(F)(F)F)c3ccccc32)c2c(c1)C(=O)N[C@@H]2c1cc(F)ccc1Cl` (single isomer, unassigned) [Compound I-2605], the IC50 is ≤ 100 nM.

In the case of `CNc1cc(NC(=O)N2C[C@](O)(C(F)(F)F)c3cc(F)ccc32)c2c(c1C#N)C(=O)N[C@@H]2c1cc(F)ccc1Cl` (single isomer, unassigned) [Compound I-2609], the IC50 is ≤ 100 nM.

Regarding `CC(C)(C#N)n1cc(-c2cc(NC(=O)N3C[C@@](O)(C(F)(F)F)c4cc(F)ccc43)c3c(c2)C(=O)N[C@@H]3c2cc(F)ccc2Cl)cn1` (single isomer, unassigned) [Compound I-2613], the IC50 is ≤ 100 nM.

Consider `N#CCc1ccc(NC(=O)N2C[C@](O)(C(F)(F)F)c3cc(F)ccc32)c2c1C(=O)N[C@H]2c1cc(F)ccc1Cl` (single isomer, unassigned) [Compound I-2614], for which the IC50 is ≤ 100 nM.

`O=C1N[C@H](c2cc(F)ccc2Cl)c2c(NC(=O)N3C[C@](O)(C(F)(F)F)c4cc(F)ccc43)ccc(Cl)c21` (single isomer, unassigned) [Compound I-2618]: the IC50 is ≤ 100 nM.

Consider `N#CCc1cc(NC(=O)N2C[C@](O)(C(F)(F)F)c3cc(F)ccc32)c2c(c1)C(=O)N[C@@H]2c1cc(F)ccc1Cl` (single isomer, unassigned) [Compound I-2627], for which the IC50 was ≤ 100 nM.

Turning to `O=C1N[C@@H](c2cc(F)ccc2Cl)c2c(NC(=O)N3C[C@](O)(C(F)(F)F)c4cc(F)ccc43)cc(F)cc21` (single isomer, unassigned) [Compound I-2630], the IC50 lay within 1000 to 10000 nM.

Take `O=C1N[C@@H](c2cc(F)ccc2Cl)c2c(NC(=O)N3C[C@](O)(C(F)F)c4cc(F)ccc43)cc(F)cc21` (single isomer, unassigned) [Compound I-2635]: the IC50 is ≤ 100 nM.

For the compound `Cc1cn(-c2cc(NC(=O)N3C[C@](O)(C(F)(F)F)c4cc(F)ccc43)c3c(c2)C(=O)N[C@@H]3c2cc(F)ccc2Cl)cn1` (single isomer, unassigned) [Compound I-2637], the IC50 is ≤ 100 nM.

In the case of `CNc1cc(NC(=O)N2C[C@@](O)(C(F)(F)F)c3cc(F)ccc32)c2c(c1)C(=O)N[C@@H]2c1cc(F)ccc1Cl` (single isomer, unassigned) [Compound I-2640], the IC50 is ≤ 100 nM.

As for `CNc1cc(NC(=O)N2C[C@](O)(C(F)(F)F)c3cc(F)ccc32)c2c(n1)C(=O)N[C@@H]2c1cc(F)ccc1Cl` (single isomer, unassigned) [Compound I-2644], the IC50 was ≤ 100 nM.

With `CC(C)(CN)n1cc(-c2cc(NC(=O)N3C[C@@](O)(C(F)(F)F)c4cc(F)ccc43)c3c(c2)C(=O)N[C@@H]3c2cc(F)ccc2Cl)cn1` (single isomer, unassigned) [Compound I-2649], the IC50 is ≤ 100 nM.

`O=C1N[C@@H](c2cc(F)ccc2Cl)c2c(NC(=O)N3C[C@](O)(C(F)(F)F)c4cc(F)ccc43)cc(C3COC3)cc21` (single isomer, unassigned) [Compound I-2655]: the IC50 is ≤ 100 nM.

With `CC1(Cc2cc(NC(=O)N3C[C@](O)(C(F)(F)F)c4cc(F)ccc43)c3c(c2)C(=O)N[C@@H]3c2cc(F)ccc2Cl)COC1` (single isomer, unassigned) [Compound I-2657], the IC50 is ≤ 100 nM.

On to `Cc1nccn1-c1cc(NC(=O)N2C[C@@](O)(C(F)(F)F)c3cc(F)ccc32)c2c(c1)C(=O)N[C@@H]2c1cc(F)ccc1Cl` (single isomer, unassigned) [Compound I-2661], for which the IC50 is ≤ 100 nM.

Take `O=C1N[C@H](c2cc(F)ccc2Cl)c2c(NC(=O)N3C[C@@](O)(C(F)(F)F)c4cc(F)ccc43)cc(N3CCCC3=O)cc21` (single isomer, unassigned) [Compound I-2665]: the IC50 was ≤ 100 nM.

System in a further assay: not listed separately
Briefly: cells. To be noted: Homo sapiens, MCF-10A, read-out: MCF10A IC50.
As to `NCCc1cc(NC(=O)N2C[C@@](O)(C(F)(F)F)c3cc(F)ccc32)c2c(c1)C(=O)N[C@H]2c1cc(F)ccc1Cl` (single isomer, unassigned) [Compound I-2581], the IC50 was in the range of 10000 to 36000 nM.

Take `[2H]C1([2H])N(C(=O)Nc2cccc3c2[C@H](c2cc(F)ccc2Cl)NC3=O)c2ccc(F)cc2[C@]1(O)C(F)(F)F` (single isomer, unassigned) [Compound I-2595]: the IC50 is < 1000 nM.

Turning to `N#CCc1cc(NC(=O)N2C[C@](O)(C(F)F)c3cc(F)ccc32)c2c(c1)C(=O)N[C@H]2c1cc(F)ccc1Cl` (single isomer, unassigned) [Compound I-2601], the IC50 is < 1000 nM.

As for `N#CCc1cc(NC(=O)N2C[C@](O)(C(F)(F)F)c3ccccc32)c2c(c1)C(=O)N[C@@H]2c1cc(F)ccc1Cl` (single isomer, unassigned) [Compound I-2605], the IC50 is < 1000 nM.

With `CNc1cc(NC(=O)N2C[C@](O)(C(F)(F)F)c3cc(F)ccc32)c2c(c1C#N)C(=O)N[C@@H]2c1cc(F)ccc1Cl` (single isomer, unassigned) [Compound I-2609], the IC50 is < 1000 nM.

Turning to `CC(C)(C#N)n1cc(-c2cc(NC(=O)N3C[C@@](O)(C(F)(F)F)c4cc(F)ccc43)c3c(c2)C(=O)N[C@@H]3c2cc(F)ccc2Cl)cn1` (single isomer, unassigned) [Compound I-2613], the IC50 was < 1000 nM.

With `N#CCc1ccc(NC(=O)N2C[C@](O)(C(F)(F)F)c3cc(F)ccc32)c2c1C(=O)N[C@H]2c1cc(F)ccc1Cl` (single isomer, unassigned) [Compound I-2614], the IC50 is < 1000 nM.

As to `O=C1N[C@H](c2cc(F)ccc2Cl)c2c(NC(=O)N3C[C@](O)(C(F)(F)F)c4cc(F)ccc43)ccc(Cl)c21` (single isomer, unassigned) [Compound I-2618], the IC50 is < 1000 nM.

For `N#CCc1cc(NC(=O)N2C[C@](O)(C(F)(F)F)c3cc(F)ccc32)c2c(c1)C(=O)N[C@@H]2c1cc(F)ccc1Cl` (single isomer, unassigned) [Compound I-2627], the concentration for half-maximal inhibition (IC50) was < 1000 nM.

Turning to `O=C1N[C@@H](c2cc(F)ccc2Cl)c2c(NC(=O)N3C[C@](O)(C(F)(F)F)c4cc(F)ccc43)cc(F)cc21` (single isomer, unassigned) [Compound I-2630], the IC50 was < 1000 nM.

In the case of `O=C1N[C@@H](c2cc(F)ccc2Cl)c2c(NC(=O)N3C[C@](O)(C(F)F)c4cc(F)ccc43)cc(F)cc21` (single isomer, unassigned) [Compound I-2635], the IC50 is < 1000 nM.

Turning to `Cc1cn(-c2cc(NC(=O)N3C[C@](O)(C(F)(F)F)c4cc(F)ccc43)c3c(c2)C(=O)N[C@@H]3c2cc(F)ccc2Cl)cn1` (single isomer, unassigned) [Compound I-2637], the IC50 was < 1000 nM.

For `CNc1cc(NC(=O)N2C[C@@](O)(C(F)(F)F)c3cc(F)ccc32)c2c(c1)C(=O)N[C@@H]2c1cc(F)ccc1Cl` (single isomer, unassigned) [Compound I-2640], the half-maximal inhibitory concentration (IC50) was < 1000 nM.

For the compound `CNc1cc(NC(=O)N2C[C@](O)(C(F)(F)F)c3cc(F)ccc32)c2c(n1)C(=O)N[C@@H]2c1cc(F)ccc1Cl` (single isomer, unassigned) [Compound I-2644], the IC50 was < 1000 nM.

`CC(C)(CN)n1cc(-c2cc(NC(=O)N3C[C@@](O)(C(F)(F)F)c4cc(F)ccc43)c3c(c2)C(=O)N[C@@H]3c2cc(F)ccc2Cl)cn1` (single isomer, unassigned) [Compound I-2649]: the IC50 lay within 1000 to 5000 nM.

As for `O=C1N[C@@H](c2cc(F)ccc2Cl)c2c(NC(=O)N3C[C@](O)(C(F)(F)F)c4cc(F)ccc43)cc(C3COC3)cc21` (single isomer, unassigned) [Compound I-2655], the IC50 is < 1000 nM.

`CC1(Cc2cc(NC(=O)N3C[C@](O)(C(F)(F)F)c4cc(F)ccc43)c3c(c2)C(=O)N[C@@H]3c2cc(F)ccc2Cl)COC1` (single isomer, unassigned) [Compound I-2657]: the IC50 was < 1000 nM.

Consider `Cc1nccn1-c1cc(NC(=O)N2C[C@@](O)(C(F)(F)F)c3cc(F)ccc32)c2c(c1)C(=O)N[C@@H]2c1cc(F)ccc1Cl` (single isomer, unassigned) [Compound I-2661], for which the IC50 was < 1000 nM.

In the case of `O=C1N[C@H](c2cc(F)ccc2Cl)c2c(NC(=O)N3C[C@@](O)(C(F)(F)F)c4cc(F)ccc43)cc(N3CCCC3=O)cc21` (single isomer, unassigned) [Compound I-2665], the IC50 was < 1000 nM.

The IC50 is the concentration that gives 50% inhibition.
